Reference: patent publication US8299034B2, “Nutritional compositions for promotion of bone growth and maintenance of bone health comprising extracts of for example rosemary or caraway” (Nestec S.A., priority 2008, dated 2012)

Experiments:
bone formation = assay: Bone formation bioassays, assay not specified (anabolic potential)
Description: (§1) The following bioassays were used for bone formation analysis • BMP-2 gene reporter assay (high throughput screen) • Alkaline phosphatase in osteoblast cells • Calvaria organ culture in vitro, bone formation • Injection into calvaria in vivo, bone formation.
(§2) For example, extracts were screened for bone formation by a high throughput gene reporter assay for BMP-2 followed by an alkaline phosphatase assay and an organ culture model and finally by injection into mice calvaria in vivo. Subfractions of positive extracts and/or pure compounds were further tested for activity.
(§3) The rosemary plant extracts and the pure compounds were tested in an osteoblast/osteoclast co-culture system.

osteoblast cells = assay: Alkaline phosphatase assay in osteoblast cells; format: cell-based
Experimental: as §1
(§4) The screening for bone formation was carried out in several stages: • (i) BMP-2 high throughput gene reporter assay of non-hydrolyzed MeOH/H2O extracts (1a) and corresponding glycosidase hydrolyzed extract in ethyl acetate (1b). […] Extracts were assessed in a 4-day in vitro neonatal murine calvarial assay. Bones were incubated with the extracts for the entire 4 days. • (vi) Resorption activity monitored by measuring the amount of type I collagen released in the media as osteoclasts digest bone.

BMP-2 = BMP-2 high throughput gene reporter assay; format: cell-based
Description: as §1
as §2, with “activity. Analysis of the chemical composition of one active extract was performed in order to determine the active compounds.” for “activity.”
as §4

OPG/RANKL = assay: Osteoblast/osteoclast co-culture system, OPG/RANKL regulation; format: cell-based
Experimental: as §3

[1] = test system: Osteopontin (OPN) mRNA in hPOBtert cells; assay: Osteopontin (OPN) mRNA induction by real-time PCR; format: cell-based, human; settings: 48 h, normalised to β-actin
Experimental: Cell culture—HPOBTert osteoblasts were seeded on collagen-coated plates and grown in MEM Eagle α Modification medium supplemented with 10% fetal bovine serum, 1% L-glutamine and penicillin/streptomycin, 1 mM β-glycerolphosphate and 50 μg/ml ascorbic acid in a humidified atmosphere of 5% CO2, and 95% air at 37° C. When carnosol and inhibitors were added, an equivalent amount of Me2SO was used as a vehicle control.
Analysis of mRNA levels by Real-Time PCR—Total cellular RNA was extracted using the NucleoSpin RNA II kit (Macherey-Nagel, Switzerland). Equal amounts (1 μg) of RNA from the different treatments were reverse-transcribed using the First Strand cDNA Synthesis kit for RT-PCR (Roche, Mannheim, Germany). For each sample, 2 μl 10× reaction buffer, 4 μl 25 mM MgCl2, 2 μl nucleotide mix, 2 μl random primers, 1 μl RNAse inhibitor and 0.4 μl AMV reverse transcriptase from the kit were added to the sample. The reverse transcriptase was performed at the following thermal cycling conditions (25° C. for 10 min, 42° C. for 60 min, and 75° C. for 5 min) using the PTC-100™ […]).
Real-time Quantitative PCR—Quantitative PCR was performed in 25 μl in triplicates. This consisted of 12.5 μl of Taqman 2× Universal PCR Master Mix, 1.25 μl Assay-on-Demand primers and probes (Applied Biosystems, USA) and 6.25 μl RNAse free water. […]

[2] = test system: neonatal murine calvarial bones; assay: Calvaria organ culture in vitro, bone formation; format: cell-based; settings: phenolics tested at 1-10 μM
Experimental: as §1, §4

NQO1 in hPOBtert cells = assay: NQO1 induction, immunoblot; format: cell-based, human
Experimental: Preparation of cytoplasmic extracts—hPOBtert cells were washed two times with cold phosphate-buffered saline and harvested with lysis buffer (1% Triton X-100, 20 mM Tris/HCL pH 8, 137 mM Nacl, 10% Glycerol, 2 mM EDTA pH 8, and freshly added proteinase inhibitors: 1 mM phenylmethylsulfonylfluoride, 0.15 U/ml Aprotinin, 10 μg/ml Leupeptide and 10 μg/ml Pepstatin). The samples were centrifuged at 13000 rpm, 4° C. for 5 min and the supernatant transferred to a fresh tube. The protein concentration was determined using the BioRad protein assay. Approximately 50 μg of each sample were mixed with a suitable volume of sample buffer, denatured for 5 min at 95° C. together with 5 μl protein standard, chilled on ice, and loaded on a 10% ready gel, and submitted to immunoblot analysis using anti-NQO1 antibodies.
Immunoblotting—50 μg of protein cell lysate were resolved by SDS-PAGE. After electrophoresis, proteins were transferred to a PVDF membrane (Invitrogen) according to the manufacturer's protocol. Membranes probed for OPN and NQO1 were blocked and probed in 5% milk in Tris-buffered saline/Tween (20 mM Tris base, pH 7.6, 137 mM, 0.1% Tween 20). The blots were visualised by chemiluminescence development, Western blotting detection system (Amersham Biosciences).
Antibodies—The NQO1 (sc-16464)-specific antibodies were purchased from Santa Cruz Biotechnologies Inc (Santa Cruz, Calif.). […]

Q: For `COc1c(OC2OC(COC(=O)C=Cc3ccc(O)cc3)C(O)C(O)C2O)cc2oc(-c3ccc(O)c(O)c3)cc(=O)c2c1O` (stereo not shown) [6″-Coumaroylnepitrin], which anabolic potential (bone formation) is on record?
A: The anabolic potential was “anabolic potential”.

Q: What does the source list for `COc1ccc(-c2cc(=O)c3c(O)cc(O)cc3o2)cc1` [Acacetin]?
A: ALP activity induction (osteoblast cells; 5-10 μM): 2X; BMP-2 induction (BMP-2; 5-10 μM): 5.5X

Q: With `COc1cc(O)c2c(=O)cc(-c3ccc(O)cc3)oc2c1` [Genkwanin] as the compound, how does the ALP activity induction (osteoblast cells; 10 μM) read?
A: Its ALP activity induction is 1.5X.

Q: And the BMP-2 induction (BMP-2; 5 μM)?
A: Its BMP-2 induction is 4X.

Q: Which “regulation of OPG/RANKL” value (OPG/RANKL) does the source give for `CC(C)c1cc2c(c(O)c1O)[C@@]13CCCC(C)(C)[C@@H]1C[C@@H]2OC3=O` [Carnosol] here?
A: The value was “activity for regulation of the key cytokines controlling bone remodeling”.

Q: What about the “OPN mRNA levels” value [1] of the same compound?
A: Its value is “induce OPN expression dose-dependently”.

Q: What about the “Bone formation in organ culture” value [2] of the same compound?
A: Its value is “Yes”.

Q: And the ALP activity induction (osteoblast cells; 2.5-10 μM)?
A: Its ALP activity induction is 2X.

Q: What about the anabolic potential (bone formation) of the same compound?
A: Its anabolic potential is “anabolic potential”.

Q: And the BMP-2 induction (BMP-2; 2.5-10 μM)?
A: The BMP-2 induction was 4.5-7X.

Q: What about the NQO1 expression (NQO1 in hPOBtert cells) of the same compound?
A: The NQO1 expression was “induces the expression of the phase II enzyme NQO1”.

Q: How did the anabolic potential (bone formation) turn out when `COc1cc(C=CC(=O)OCC2OC(Oc3cc4oc(-c5ccc(O)c(O)c5)cc(=O)c4c(O)c3OC)C(O)C(O)C2O)ccc1O` (stereo not shown) [6″-Feruloylnepitrin] was run?
A: Its anabolic potential is “anabolic potential”.

Q: With `O=c1c(O)c(-c2ccc(O)cc2)oc2cc(O)cc(O)c12` [Kaempferol] as the compound, how does the “Bone formation in organ culture” value [2] read?
A: Its value is “Yes”.

Q: And the ALP activity induction (osteoblast cells; 2.5-10 μM)?
A: The ALP activity induction was 2-4X.

Q: And the anabolic potential (bone formation)?
A: Its anabolic potential is “anabolic potential”.

Q: What about the BMP-2 induction (BMP-2; 1-10 μM) of the same compound?
A: The BMP-2 induction was 2.5X.

Q: Which results are given for `O=c1cc(-c2ccc(O)cc2)oc2cc(O)c(O)c(O)c12` [Scutellarein]?
A: ALP activity induction (osteoblast cells; 10 μM): 2X; BMP-2 induction (BMP-2; 5, 10 μM): 3-4X

Q: For `COc1c(O)cc2oc(-c3ccc(O)c(O)c3)cc(=O)c2c1O` [Eupafolin], which “regulation of OPG/RANKL” value (OPG/RANKL) is on record?
A: Its value is “activity for regulation of the key cytokines controlling bone remodeling”.

Q: And the “Bone formation in organ culture” value [2]?
A: Its value is “Yes”.

Q: And the ALP activity induction (osteoblast cells; 5 μM)?
A: The ALP activity induction was 2 X.

Q: What about the ALP activity induction (osteoblast cells; 10 μM) of the same compound?
A: The ALP activity induction was 4 X.

Q: What about the anabolic potential (bone formation) of the same compound?
A: The anabolic potential was “anabolic potential”.

Q: And the BMP-2 induction (BMP-2; 2.5-10 μM)?
A: Its BMP-2 induction is 3-8X.
